Source: patent US9248203B2, “Fluorescent imaging with substituted cyanine dyes” (LI-COR, INC., priority 2010, dated 2016)
Values belong to the compound of their own block, whether it stands above or below them.

What was measured:
U87GM cells = experiment: Immunocytochemical binding, blocking and dye control assay, U87GM; format: cell-based; conditions: dye control up to 5 μM, FIG. 7C
Protocol: RGD (Arg-Gly-Asp), the recognition motif used to bind the integrin receptors, was labeled with compound 17. The characteristics of RGD/17 conjugate and the analogous dye carboxylate 16 were evaluated in a cell-based assay.
Compound 17 was conjugated to the peptide RGD by the general procedure set forth in Example 32.
The cell lines U87GM and PC3MLN4 were assayed. Assays included binding, blocking, and carboxylate control. Serial dilutions of compound 16 were prepared at concentrations of 200-6.25 nM. Blocking was accomplished with unlabeled RGD at concentrations of 10-0.31 μM with the addition of 200 nM compound 17-RGD conjugates in all test wells. The compound 16 was evaluated as a dye control for non-specific binding at relatively high levels from 5-0.16 μM with U87GM cells and 1-0.002 μM with PC3 cells.
In the second round of testing with U87GM cells, concentrations of unlabeled RGD and compound 17/RGD were increased (FIGS. 8A and 8B). Binding assay concentrations utilized 0.8-400 nM while the blocking assay used 0.06-30 μM unlabeled RGD with an addition of 200 nM 17/RGD.

[1] = In vivo clearance, Pearl Impulse imaging; parameters: species or system nude mice; conditions: for Total: 800 channel; for clearance in vivo (clearance series): FIG. 9, 1 nmole injected, imaged over 24 h
Protocol: Two nude mice were injected with 1 nmole of either compound 16 or IRDye 800CW carboxylate. They were then imaged longitudinally over the next 24 h with the Pearl Impulse imaging system. The results are presented in FIG. 9: in vivo clearance in nudes (FIG. 9A), whole body dorsal views (FIG. 9B), and the rate of clearance (FIG. 9C). The clearance data is presented below in Table 4.

[2] = Absorption wavelength of the cyanine dyes in methanol (halo substitution effect); format: physicochemical; conditions: Table 2
Description: Design Principle: We analyzed the properties of a dye scaffold and related compounds and the corresponding substitution effects on the excitation and emission wavelengths. The small size of fluorine is unlikely to produce steric effects, therefore, we explored the electronic effects of fluorine and related substitutions. The Hammett equation (σ-value) is an important tool to understand the electronic effects of the substituents, therefore, we explored the correlation of the wavelength (λMeOH) and the σ-value (vide infra): […]

[3] = Summary of photophysical properties (absorption, emission, relative fluorescence, quantum yield); format: physicochemical; conditions: head is a formula, relative to IRDye 800 CW
[4] = value used for the standard IRDye 800 CW; cited from earlier work

Total ([1]; 1 min): 109682.80
Total ([1]; 17 min): 282046.59
Total ([1]; 45 min): 286573.94
Total ([1]; 71 min): 266647.59
Total ([1]; 190 min): 139736.97
Total ([1]; 276 min): 76493.30
Total ([1]; 1435 min): 1652.69
clearance in vivo (clearance series) [1]: good clearance in vivo
Compound: CC1(C)C(/C=C/C2=C(c3c(F)cc(F)cc3F)C(=C/C=C3/N(CCCS(=O)(=O)[O-])c4ccc(S(=O)(=O)[O-])cc4C3(C)C)/CC(C(=O)O)C2)=[N+](CCCS(=O)(=O)[O-])c2ccc(S(=O)(=O)[O-])cc21.[Na+].[Na+].[Na+] (stereo not drawn) [Compound 16]
concentration above which relatively high non-specific binding of the dye alone was noted (U87GM cells): above 2 μM

Compound: CCCCOc1c(F)c(F)c(C2=C(/C=C/C3=[N+](CCCCS(=O)(=O)[O-])c4ccc(S(=O)(=O)[O-])cc4C3(C)C)CCC/C2=C\C=C2\N(CCCCS(=O)(=O)[O-])c3ccc(S(=O)(=O)[O-])cc3C2(C)C)c(F)c1F.[Na+].[Na+].[Na+] [Compound 24]
λMeOH [2]: 790 nm

Compound: CC1(C)C(/C=C/C2=C(c3cccc(F)c3F)C(=C/C=C3/N(CCCCS(=O)(=O)[O-])c4ccc(S(=O)(=O)[O-])cc4C3(C)C)/CCC2)=[N+](CCCCS(=O)(=O)[O-])c2ccc(S(=O)(=O)[O-])cc21.[Na+].[Na+].[Na+] [Compound 62k]
[formula] Odyssey [3]: 104%
[formula] Fluorimeter [3]: 100%

λMeOH [2]: 770 nm
Compound: CC1(C)C(/C=C/C2=C(c3cccc(F)c3F)C(=C/C=C3/N(CCCCS(=O)(=O)[O-])c4ccc(S(=O)(=O)[O-])cc4C3(C)C)/CC(C(=O)O)C2)=[N+](CCCCS(=O)(=O)[O-])c2ccc(S(=O)(=O)[O-])cc21.[Na+].[Na+].[Na+] (stereo not drawn) [Compound 63a]

[formula] Odyssey [3]: 100%
[formula] Fluorimeter [3]: 100%
Compound: CC1(C)C(=CC=C2CCCC(C=CC3=[N+](CCCCCC(=O)[O-])c4ccc(S(=O)(=O)[O-])cc4C3(C)C)=C2Oc2ccc(S(=O)(=O)[O-])cc2)N(CCCCS(=O)(=O)[O-])c2ccc(S(=O)(=O)[O-])cc21.[Na+].[Na+].[Na+].[Na+] [IRDye 800CW, reference compound]
Quantum Yield of the standard [4]: 0.07

Total ([1]; 3 min): 114295.49
Total ([1]; 19 min): 306555.97
Total ([1]; 47 min): 291381.69
Total ([1]; 74 min): 272408.13
Total ([1]; 192 min): 154950.09
Total ([1]; 278 min): 102698.54
Total ([1]; 1439 min): 2336.87
clearance in vivo (clearance series) [1]: good clearance in vivo
Compound: IRDye 800CW carboxylate [reference compound]
